Source: publication PMC10733463, “Berberine-microbiota interplay: orchestrating gut health through modulation of the gut microbiota and metabolic transformation into bioactive metabolites” (Frontiers in Pharmacology, 2023)

System: caecal microbiota cultures
Assay: 16S sequencing of total (DNA) and active (cDNA) community in caecal microbiota cultures, BBR vs Control
Assay type: cell-based, broiler chicken
Conditions: 48 h; for L2FC BBRRNA vs ControlRNA: active (cDNA) community; for L2FC BBRRNA vs BBRDNA: active vs total community in BBR group; for L2FC BBRDNA vs ControlDNA: total (DNA) community
[1] = OTU 563086 ([Ruminococcus] torques group)
[2] = OTU 574038 (uncultured Lachnospiraceae)
[3] = OTU 579244 (Ruminiclostridium 9)
[4] = OTU 592616 (Erysipelatoclostridium)
[5] = OTU 647215 (uncultured Ruminococcaceae)
[6] = OTU 843454 (Family_Lachnospiraceae)
[7] = OTU 1094991 (Ruminococcaceae UCG-005)
[8] = OTU 2265722 (uncultured Lachnospiraceae)
[9] = OTU 4404181 (uncultured Ruminococcaceae)
[10] = OTU New.CleanUp.ReferenceOTU4902 (Erysipelatoclostridium)
[11] = OTU New.ReferenceOTU85 (Anaerofilum)
[12] = OTU New.ReferenceOTU111 (Lachnospiraceae UCG-010)
[13] = OTU New.ReferenceOTU118 (Erysipelatoclostridium)
[14] = OTU New.ReferenceOTU144 (Erysipelatoclostridium)
[15] = OTU New.ReferenceOTU364 (Streptococcus)
[16] = OTU New.ReferenceOTU377 (uncultured Ruminococcaceae)
[17] = OTU New.ReferenceOTU392 (Intestinimonas)
[18] = OTU New.ReferenceOTU395 (Ruminiclostridium 9)
[19] = OTU New.ReferenceOTU429 (Erysipelatoclostridium)
[20] = OTU New.ReferenceOTU462 (Erysipelatoclostridium)
[21] = OTU New.ReferenceOTU476 (Escherichia-Shigella)
[22] = OTU New.ReferenceOTU486 (Streptococcus)
[23] = OTU New.ReferenceOTU551 (uncultured Ruminococcaceae)

COc1ccc2cc3[n+](cc2c1OC)CCc1cc2c(cc1-3)OCO2 [Berberine, Berberine chloride]
L2FC BBRRNA vs ControlRNA [1]: -0.24 | L2FC BBRRNA vs BBRDNA [1]: -1.93 | L2FC BBRDNA vs ControlDNA [1]: -0.39 | L2FC BBRRNA vs ControlRNA (OTU 564334 (Oscillibacter)): -0.38 | L2FC BBRRNA vs BBRDNA (OTU 564334 (Oscillibacter)): 2.35 | L2FC BBRDNA vs ControlDNA (OTU 564334 (Oscillibacter)): -0.21 | L2FC BBRRNA vs ControlRNA [2]: -1.65 | L2FC BBRRNA vs BBRDNA [2]: -0.24 | L2FC BBRDNA vs ControlDNA [2]: -2.16 | L2FC BBRRNA vs ControlRNA [3]: -1.11 | L2FC BBRRNA vs BBRDNA [3]: 2.49 | L2FC BBRDNA vs ControlDNA [3]: -1.32 | L2FC BBRRNA vs ControlRNA (OTU 585227 (Oscillibacter)): 0.12 | L2FC BBRRNA vs BBRDNA (OTU 585227 (Oscillibacter)): 2.44 | L2FC BBRDNA vs ControlDNA (OTU 585227 (Oscillibacter)): 0.21 | L2FC BBRRNA vs ControlRNA [4]: 0.37 | L2FC BBRRNA vs BBRDNA [4]: 1.49 | L2FC BBRDNA vs ControlDNA [4]: 0.67 | L2FC BBRRNA vs ControlRNA [5]: 0.58 | L2FC BBRRNA vs BBRDNA [5]: 2.24 | L2FC BBRDNA vs ControlDNA [5]: 0.49 | L2FC BBRRNA vs ControlRNA (OTU 813944 (Lactobacillus)): 1.85 | L2FC BBRRNA vs BBRDNA (OTU 813944 (Lactobacillus)): 1.33 | L2FC BBRDNA vs ControlDNA (OTU 813944 (Lactobacillus)): 1.53 | L2FC BBRRNA vs ControlRNA (OTU 842786 (Intestinimonas)): -0.59 | L2FC BBRRNA vs BBRDNA (OTU 842786 (Intestinimonas)): 2.24 | L2FC BBRDNA vs ControlDNA (OTU 842786 (Intestinimonas)): -0.09 | L2FC BBRRNA vs ControlRNA [6]: 0.55 | L2FC BBRRNA vs BBRDNA [6]: -1.17 | L2FC BBRDNA vs ControlDNA [6]: -0.19 | L2FC BBRRNA vs ControlRNA (OTU 847728 (Ruminococcus 2)): -0.72 | L2FC BBRRNA vs BBRDNA (OTU 847728 (Ruminococcus 2)): 1.54 | L2FC BBRDNA vs ControlDNA (OTU 847728 (Ruminococcus 2)): -0.88 | L2FC BBRRNA vs ControlRNA [7]: -1.26 | L2FC BBRRNA vs BBRDNA [7]: 1.01 | L2FC BBRDNA vs ControlDNA [7]: -1.67 | L2FC BBRRNA vs ControlRNA (OTU 1107057 (Anaerostipes)): -0.90 | L2FC BBRRNA vs BBRDNA (OTU 1107057 (Anaerostipes)): -2.55 | L2FC BBRDNA vs ControlDNA (OTU 1107057 (Anaerostipes)): -1.14 | L2FC BBRRNA vs ControlRNA (OTU 1132942 (Butyricicoccus)): 0.64 | L2FC BBRRNA vs BBRDNA (OTU 1132942 (Butyricicoccus)): -3.15 | L2FC BBRDNA vs ControlDNA (OTU 1132942 (Butyricicoccus)): 0.37 | L2FC BBRRNA vs ControlRNA [8]: 2.76 | L2FC BBRRNA vs BBRDNA [8]: -0.46 | L2FC BBRDNA vs ControlDNA [8]: 1.22 | L2FC BBRRNA vs ControlRNA [9]: 0.08 | L2FC BBRRNA vs BBRDNA [9]: -1.72 | L2FC BBRDNA vs ControlDNA [9]: 0.40 | L2FC BBRRNA vs ControlRNA [10]: -2.19 | L2FC BBRRNA vs BBRDNA [10]: -0.05 | L2FC BBRDNA vs ControlDNA [10]: -1.03 | L2FC BBRRNA vs ControlRNA [11]: -1.45 | L2FC BBRRNA vs BBRDNA [11]: -0.84 | L2FC BBRDNA vs ControlDNA [11]: -1.62 | L2FC BBRRNA vs ControlRNA [12]: -1.27 | L2FC BBRRNA vs BBRDNA [12]: -1.92 | L2FC BBRDNA vs ControlDNA [12]: -0.42 | L2FC BBRRNA vs ControlRNA [13]: -1.90 | L2FC BBRRNA vs BBRDNA [13]: -0.75 | L2FC BBRDNA vs ControlDNA [13]: -0.82 | L2FC BBRRNA vs ControlRNA [14]: 0.42 | L2FC BBRRNA vs BBRDNA [14]: 1.64 | L2FC BBRDNA vs ControlDNA [14]: 0.55 | L2FC BBRRNA vs ControlRNA [15]: -0.92 | L2FC BBRRNA vs BBRDNA [15]: -0.91 | L2FC BBRDNA vs ControlDNA [15]: -1.70 | L2FC BBRRNA vs ControlRNA [16]: -0.22 | L2FC BBRRNA vs BBRDNA [16]: 1.91 | L2FC BBRDNA vs ControlDNA [16]: -0.81 | L2FC BBRRNA vs ControlRNA [17]: -0.28 | L2FC BBRRNA vs BBRDNA [17]: 1.69 | L2FC BBRDNA vs ControlDNA [17]: -0.31 | L2FC BBRRNA vs ControlRNA [18]: -1.01 | L2FC BBRRNA vs BBRDNA [18]: 2.37 | L2FC BBRDNA vs ControlDNA [18]: -1.00 | L2FC BBRRNA vs ControlRNA [19]: 0.23 | L2FC BBRRNA vs BBRDNA [19]: 1.73 | L2FC BBRDNA vs ControlDNA [19]: 0.65 | L2FC BBRRNA vs ControlRNA [20]: -0.55 | L2FC BBRRNA vs BBRDNA [20]: 1.51 | L2FC BBRDNA vs ControlDNA [20]: -0.78 | L2FC BBRRNA vs ControlRNA [21]: -0.42 | L2FC BBRRNA vs BBRDNA [21]: 1.67 | L2FC BBRDNA vs ControlDNA [21]: -0.75 | L2FC BBRRNA vs ControlRNA [22]: -0.10 | L2FC BBRRNA vs BBRDNA [22]: -0.33 | L2FC BBRDNA vs ControlDNA [22]: -2.01 | L2FC BBRRNA vs ControlRNA [23]: 0.00 | L2FC BBRRNA vs BBRDNA [23]: 2.70 | L2FC BBRDNA vs ControlDNA [23]: 0.58
